The source of these data is patent US10676431B2, “Phenylpyrrolidinone formyl peptide 2 receptor agonists” (BRISTOL-MYERS SQUIBB COMPANY, priority 2018, dated 2020).

Broadly, the EC50 is the concentration at which the effect is half-maximal.

Some results are limits rather than exact numbers.

One assay addresses human FPR1 (Homo sapiens (Human), UniProt P21462). Briefly: FPR1 cyclic adenosine monophosphate (cAMP) assay. The format is cell-based. The settings on record: CHO cells overexpressing human FPR1; forskolin 10 μM, IBMX 200 μM; inhibition of cAMP production, HTRF; read-out: hFPR1 cAMP EC50. On the procedure:
FPR2 and FPR1 Cyclic Adenosine Monophosphate (cAMP) Assays. A mixture of forskolin (5 μM final for FPR2 or 10 μM final for FPR1) and IBMX (200 μM final) were added to 384-well Proxiplates (Perkin-Elmer) pre-dotted with test compounds in DMSO (1% final) at final concentrations in the range of 0.020 nM to 100 μM. Chinese Hamster Ovary cells (CHO) overexpressing human FPR1 or human FPR2 receptors were cultured in F-12 (Ham's) medium supplemented with 10% qualified FBS, 250 μg/ml zeocin and 300 μg/ml hygromycin (Life Technologies). Reactions were initiated by adding 2,000 human FPR2 cells per well or 4,000 human FPR1 cells per well in Dulbecco's PBS (with calcium and magnesium) (Life Technologies) supplemented with 0.1% BSA (Perkin-Elmer). The reaction mixtures were incubated for 30 min at room temperature. The level of intracellular cAMP was determined using the HTRF HiRange cAMP assay reagent kit (Cisbio) according to manufacturer's instruction. Solutions of cryptate conjugated anti-cAMP and d2 fluorophore-labelled cAMP were made in a supplied lysis buffer separately. Upon completion of the reaction, the cells were lysed with equal volume of the d2-cAMP solution and anti-cAMP solution. […] The potency and activity of a compound to inhibit cAMP production was then determined by fitting to a 4-parametric logistic equation from a plot of cAMP level versus compound concentrations.
A general note: cAMP levels reflect the balance of adenylyl cyclase and phosphodiesterase activity.

In a further assay the target is human FPR2 (Homo sapiens (Human), UniProt P25090). Briefly: FPR2 cyclic adenosine monophosphate (cAMP) assay. The assay is classed as cell-based. The settings on record: CHO cells overexpressing human FPR2; forskolin 5 μM, IBMX 200 μM; inhibition of cAMP production, HTRF; read-out: hFPR2 cAMP2 EC50. On the procedure: FPR2 and FPR1 Cyclic Adenosine Monophosphate (cAMP) Assays. A mixture of forskolin (5 μM final for FPR2 or 10 μM final for FPR1) and IBMX (200 μM final) were added to 384-well Proxiplates (Perkin-Elmer) pre-dotted with test compounds in DMSO (1% final) at final concentrations in the range of 0.020 nM to 100 μM. Chinese Hamster Ovary cells (CHO) overexpressing human FPR1 or human FPR2 receptors were cultured in F-12 (Ham's) medium supplemented with 10% qualified FBS, 250 μg/ml zeocin and 300 μg/ml hygromycin (Life Technologies). Reactions were initiated by adding 2,000 human FPR2 cells per well or 4,000 human FPR1 cells per well in Dulbecco's PBS (with calcium and magnesium) (Life Technologies) supplemented with 0.1% BSA (Perkin-Elmer). The reaction mixtures were incubated for 30 min at room temperature. The level of intracellular cAMP was determined using the HTRF HiRange cAMP assay reagent kit (Cisbio) according to manufacturer's instruction. Solutions of cryptate conjugated anti-cAMP and d2 fluorophore-labelled cAMP were made in a supplied lysis buffer separately. Upon completion of the reaction, the cells were lysed with equal volume of the d2-cAMP solution and anti-cAMP solution. After a 1-h room temperature incubation, time-resolved fluorescence intensity was measured using the Envision (Perkin-Elmer) at 400 nm excitation and dual emission at 590 nm and 665 nm. A calibration curve was constructed with an external cAMP standard at concentrations ranging from 1 μM to 0.1 pM by plotting the fluorescent intensity ratio from 665 nm emission to the intensity from the 590 nm emission against cAMP concentrations. The potency and activity of a compound to inhibit cAMP production was then determined by fitting to a 4-parametric logistic equation from a plot of cAMP level versus compound concentrations.
human FPR2, sequence (P25090 whole entry): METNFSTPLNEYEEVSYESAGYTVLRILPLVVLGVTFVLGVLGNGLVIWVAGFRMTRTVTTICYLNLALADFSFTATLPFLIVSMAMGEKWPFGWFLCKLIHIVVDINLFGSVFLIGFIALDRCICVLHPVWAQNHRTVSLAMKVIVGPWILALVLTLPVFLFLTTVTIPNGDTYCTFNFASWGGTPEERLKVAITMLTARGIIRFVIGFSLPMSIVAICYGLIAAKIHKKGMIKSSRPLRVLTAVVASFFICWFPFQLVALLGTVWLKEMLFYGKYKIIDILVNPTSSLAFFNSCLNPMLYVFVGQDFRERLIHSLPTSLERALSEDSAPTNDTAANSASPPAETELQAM

human FPR1, sequence (P21462 whole entry): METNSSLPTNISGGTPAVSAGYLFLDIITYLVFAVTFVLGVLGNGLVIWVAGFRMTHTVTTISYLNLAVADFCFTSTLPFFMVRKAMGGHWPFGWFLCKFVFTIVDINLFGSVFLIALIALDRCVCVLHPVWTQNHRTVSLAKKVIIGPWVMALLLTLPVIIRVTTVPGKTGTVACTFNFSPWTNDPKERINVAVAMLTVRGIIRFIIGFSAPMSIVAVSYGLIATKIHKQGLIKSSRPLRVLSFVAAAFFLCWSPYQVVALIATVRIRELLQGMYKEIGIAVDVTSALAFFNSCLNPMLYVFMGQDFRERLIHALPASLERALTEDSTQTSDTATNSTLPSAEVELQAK

For the molecule `CP(C)(=O)c1ccccc1-c1ccc(N2CC[C@@H](NC(=O)Nc3ccc(C(F)(F)F)cc3F)C2=O)c(F)c1F` [Example 57, (R)-1-(1-(2′-(dimethylphosphoryl)-2,3-difluoro-[1,1′-biphenyl]-4-yl)-2-oxopyrrolidin-3-yl)-3-(2-fluoro-4-(trifluoromethyl)phenyl)urea], the 50% effective concentration (EC50) on human FPR1 came to 1000 nM; on human FPR2 it was 0.95 nM.

Turning to `CC1(C)CN(c2ccc(-c3ccccc3P(C)(C)=O)c(F)c2F)C(=O)[C@@H]1NC(=O)Nc1cnc(Cl)cn1` [Example 130], the EC50 was 3000 nM on human FPR1 and 5.7 nM at human FPR2.

As to `CP(C)(=O)c1ccccc1-c1ccc(N2CC[C@@H](NC(=O)Nc3ccc(Cl)cc3F)C2=O)c(Cl)c1F` [Example 99], the values for the EC50 at human FPR1 and at human FPR2 were 240 nM and 0.79 nM, respectively.

Take `O=C(Nc1ccc(Cl)cc1)N[C@@H]1CCN(c2ccc(-c3ccccc3F)c(F)c2F)C1=O` [Example 16]: the figures for the concentration giving a half-maximal response (EC50) at human FPR1 and at human FPR2 were 120 nM and 12 nM, respectively.

Take `COc1c(N2CC[C@@H](NC(=O)Nc3ccc(Cl)cc3F)C2=O)ccc(-c2ccccc2NS(C)(=O)=O)c1F` [Example 36]: the EC50 at human FPR1 came to 69 nM; on human FPR2, 4.7 nM.

`CC1C[C@@H](NC(=O)Nc2ccc(Cl)cc2F)C(=O)N1c1ccc(-c2cccnc2P(C)(C)=O)c(F)c1F` (some centres unmarked) [Example 122]: the EC50 on human FPR1 was determined as 610 nM; on human FPR2 it was 0.81 nM.

For `CP(C)(=O)c1c(F)cccc1-c1ccc(N2CC[C@@H](NC(=O)Nc3ccc(Cl)cc3F)C2=O)c(F)c1Cl` [Example 85], the EC50 on human FPR1 was found to be 5.1 nM; on human FPR2, 0.62 nM.

For `CS(=O)(=O)Nc1ncccc1-c1ccc(N2CC[C@@H](NC(=O)Nc3ccc(Cl)cc3F)C2=O)c(C2CC2)c1` [Example 48], the concentration giving a half-maximal response (EC50) on human FPR1 was found to be 110 nM; at human FPR2, 3.7 nM.

Take `O=C(Nc1ccc(Cl)cc1F)N[C@@H]1CCN(c2ccc(-c3cnn(C(F)F)c3)c(F)c2F)C1=O` [Example 79]: the concentration for a half-maximal effect (EC50) was over 10000 nM on human FPR1 and 39 nM on human FPR2.

Turning to `O=C(Nc1ccc(Cl)cc1F)N[C@@H]1CCN(c2ccc(-c3ccccc3N3CCOC3=O)c(F)c2F)C1=O` [Example 119], the EC50 stood at 190 nM at human FPR1 and 14 nM at human FPR2.

As to `CP(C)(=O)c1ccccc1-c1ccc(N2CC(CO)[C@@H](NC(=O)Nc3ccc(Cl)cc3F)C2=O)c(F)c1F` (some centres unmarked) [Example 126], the concentration for a half-maximal effect (EC50) on human FPR1 was over 10000 nM; on human FPR2, 12 nM.

For `CP(C)(=O)c1ccccc1-c1cc(F)c(N2CC[C@@H](NC(=O)Nc3ccc(Cl)cc3F)C2=O)c(F)c1` [Example 53], the EC50 at human FPR1 is 2700 nM; on human FPR2 it was 7.8 nM.

`CP(C)(=O)c1ccccc1-c1ccc(N2C(=O)[C@@H](NC(=O)Nc3ccc(Cl)cc3F)C[C@H]2CO)c(F)c1F` [Example 111]: the EC50 turned out to be 540 nM on human FPR1 and 30 nM at human FPR2.

In the case of `CP(C)(=O)c1ccccc1-c1ccc(N2CC[C@@H](NC(=O)Nc3ccc(C(F)(F)F)cc3F)C2=O)c(F)c1C1CC1` [Example 89, (R)-1-(1-(2-Cyclopropyl-2′-(dimethylphosphoryl)-3-fluoro-[1,1′-biphenyl]-4-yl)-2-oxopyrrolidin-3-yl)-3-(2-fluoro-4-(trifluoromethyl)phenyl)urea], the concentration giving a half-maximal response (EC50) on human FPR1 is 25 nM; at human FPR2 it was 4.4 nM.

As for `CP(C)(=O)c1ccccc1-c1ccc(N2C(=O)[C@H](NC(=O)Nc3ccc(Cl)cc3F)C[C@H]2CO)c(F)c1F` [Example 112, 1-(4-Chloro-2-fluorophenyl)-3-((3R,5S)-1-(2′-(dimethylphosphoryl)-2,3-difluoro-[1,1′-biphenyl]-4-yl)-5-(hydroxymethyl)-2-oxopyrrolidin-3-yl)urea], the EC50 at human FPR1 was found to be 390 nM; on human FPR2 it was 0.27 nM.

Consider `COC[C@@H]1C[C@@H](NC(=O)Nc2ccc(C(F)(F)F)cc2F)C(=O)N1c1ccc(-c2ccccc2P(C)(C)=O)c(F)c1F` [Example 90], for which the concentration for a half-maximal effect (EC50) was 1400 nM on human FPR1 and 5.1 nM at human FPR2.

As to `CP(C)(=O)c1ccccc1-c1ccc(N2CC[C@@H](NC(=O)Nc3ccc(C(F)(F)F)cc3F)C2=O)c(F)c1OC(F)(F)F` [Example 88], the EC50 on human FPR1 was 4.9 nM; on human FPR2 it was 5.3 nM.

For `CS(=O)(=O)Nc1ccccc1-c1ccc(N2CC[C@@H](NC(=O)Nc3c(F)cc(Cl)cc3F)C2=O)c(F)c1F` [Example 4], the 50% effective concentration (EC50) on human FPR1 is 1700 nM; at human FPR2 it was 0.93 nM.

As for `O=C(Nc1ccc(Cl)cc1F)N[C@@H]1CCN(c2ccc(-c3ccccc3F)c(F)c2F)C1=O` [Example 21], the EC50 was 390 nM at human FPR1 and 31 nM at human FPR2.

Take `CP(C)(=O)c1c(F)cccc1-c1ccc(N2CC[C@@H](NC(=O)Nc3ccc(C(F)(F)F)cc3F)C2=O)c(F)c1F` [Example 72]: the EC50 on human FPR1 was 54 nM; on human FPR2 it was 0.61 nM.

With `CP(C)(=O)c1ccccc1-c1ccc(N2CC[C@@H](NC(=O)Nc3ccc(C(F)(F)F)cc3F)C2=O)c(F)c1Cl` [Example 77], the EC50 was 79 nM at human FPR1 and 1.2 nM at human FPR2.

As to `CC1(C)CN(c2ccc(-c3ccccc3P(C)(C)=O)c(F)c2F)C(=O)[C@@H]1NC(=O)Nc1ccc(Cl)cc1F` [Example 103], the concentration for a half-maximal effect (EC50) is 350 nM at human FPR1 and 0.57 nM on human FPR2.

With `CS(=O)(=O)Nc1ccccc1-c1ccc(N2CC[C@@H](NC(=O)Nc3ncc(Cl)cc3F)C2=O)c(F)c1F` [Example 13], the EC50 at human FPR1 was determined as 2500 nM; at human FPR2, 6.5 nM.

Consider `CCP(=O)(CC)c1ccccc1-c1ccc(N2CC[C@@H](NC(=O)Nc3ccc(C(F)(F)F)cc3F)C2=O)c(F)c1F` [Example 68], for which the results for the EC50 at human FPR1 and on human FPR2 were 150 nM and 0.53 nM, respectively.

Turning to `CC1(C)CN(c2ccc(-c3ccccc3P(C)(C)=O)c(F)c2F)C(=O)[C@@H]1NC(=O)Nc1ccc(C(F)(F)F)cc1F` [Example 102], the results for the half-maximal effective concentration (EC50) at human FPR1 and at human FPR2 were 570 nM and 1.7 nM, respectively.

Take `CP(C)(=O)c1ccccc1-c1ccc(N2CC[C@@H](NC(=O)Nc3ccc(Cl)cc3F)C2=O)c(C2CC2)c1F` [Example 117]: the figures for the EC50 on human FPR1 and on human FPR2 were 84 nM and 13 nM, respectively.

Regarding `CCP(=O)(CC)c1ncccc1-c1ccc(N2CC[C@@H](NC(=O)Nc3ccc(C(F)(F)F)cc3F)C2=O)c(F)c1F` [Example 100], the 50% effective concentration (EC50) at human FPR1 amounted to 92 nM; on human FPR2, 2 nM.

For `CP(C)(=O)c1ccccc1-c1ccc(N2C(=O)[C@H](NC(=O)Nc3ccc(C(F)(F)F)cc3F)C[C@H]2CN2CCOCC2)c(F)c1F` [Example 131], the EC50 was 61 nM at human FPR1 and 1.2 nM at human FPR2.

For the molecule `Cn1ccc(-c2ccc(N3CC[C@@H](NC(=O)Nc4ccc(Cl)cc4F)C3=O)c(F)c2F)n1` [Example 28], the EC50 turned out to be 550 nM on human FPR1 and 9.8 nM at human FPR2.

Turning to `CP(C)(=O)c1ccccc1-c1ccc(N2CC(CO)[C@@H](NC(=O)Nc3ccc(C(F)(F)F)cc3F)C2=O)c(F)c1F` (some centres unmarked) [Example 124], the EC50 was determined as 760 nM at human FPR1 and 0.79 nM on human FPR2.

For the molecule `CP(C)(=O)c1ccccc1-c1ccc(N2CC[C@@H](NC(=O)Nc3cnc(Cl)cn3)C2=O)c(C2CC2)c1` [Example 62], the EC50 at human FPR1 turned out to be 720 nM; at human FPR2, 31 nM.

On to `CS(=O)(=O)Nc1ccccc1-c1ccc(N2CC[C@@H](NC(=O)Nc3ccc(C(F)(F)F)cc3)C2=O)cc1` [Example 14], for which the 50% effective concentration (EC50) at human FPR1 was 600 nM; on human FPR2 it was 7.2 nM.

For the molecule `O=C(Nc1ccc(C(F)(F)F)cc1F)N[C@@H]1CCN(c2ccc(-c3ccccc3CO)c(F)c2F)C1=O` [Example 31], the figures for the EC50 on human FPR1 and on human FPR2 were 430 nM and 4 nM, respectively.

For `CS(=O)(=O)Nc1ccccc1-c1ccc(N2CC[C@@H](NC(=O)Nc3ccc(C(F)(F)F)cc3F)C2=O)c(C2CC2)c1` [Example 43], the EC50 on human FPR1 was found to be 120 nM; at human FPR2, 3.3 nM.
